From PubChem BioAssay (NCI)
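1) Cells in 96-well plates. 2) Compound, 48 h, 5 concentrations. 3) Linear interpolation between surrounding doses. 4) Unreached endpoint = highest concentration. Here, GI50 denotes the concentration required for 50% inhibition of growth. TGI is the concentration that stops growth completely.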 Where a SMILES comes first, the peptide text is derived from it.

Key:
Assay in all cases: growth of human tumour cells (NCI), 48 h
HCT-116 colon = system: HCT-116 colon
A549 NSCLC = system: A549 NSCLC
UACC-62 melanoma = system: UACC-62 melanoma
OVCAR-5 ovarian = system: OVCAR-5 ovarian
HT29 colon = system: HT29 colon
OVCAR-8 ovarian = system: OVCAR-8 ovarian
CCRF-CEM leukemia = system: CCRF-CEM leukemia
SK-MEL-2 melanoma = system: SK-MEL-2 melanoma
SW-620 colon = system: SW-620 colon
DU-145 prostate = system: DU-145 prostate

Row | Compound | TGI (HCT-116 colon) [µM] | TGI (A549 NSCLC) [µM] | TGI (UACC-62 melanoma) [µM] | TGI (OVCAR-5 ovarian) [µM] | TGI (HT29 colon) [µM] | TGI (OVCAR-8 ovarian) [µM] | TGI (CCRF-CEM leukemia) [µM] | TGI (SK-MEL-2 melanoma) [µM] | TGI (SW-620 colon) [µM] | GI50 (HCT-116 colon) [µM] | GI50 (A549 NSCLC) [µM] | GI50 (UACC-62 melanoma) [µM] | GI50 (OVCAR-5 ovarian) [µM] | GI50 (HT29 colon) [µM] | GI50 (OVCAR-8 ovarian) [µM] | GI50 (CCRF-CEM leukemia) [µM] | GI50 (SK-MEL-2 melanoma) [µM] | GI50 (SW-620 colon) [µM] | GI50 (DU-145 prostate) [µM] | TGI (DU-145 prostate) [µM]
1 | CCOC(=N)CC(=O)Nc1cccc(Cl)c1 | > 100 | > 100 | > 100 | > 100 | > 100 | > 100 | > 100 | > 100 | > 100 | – | – | – | – | – | – | – | – | – | – | –
2 | CNS(=O)(=O)NN(C)S(=O)(=O)c1ccc2ccccc2c1 | > 100 | > 100 | > 100 | – | > 100 | > 100 | > 100 | > 100 | > 100 | – | – | – | – | – | – | – | – | – | – | –
3 | Cc1cccc(N2C(=O)C(=O)C(c3nc4ccccc4s3)/C(=N/NC(=S)NN)C2=O)c1C (centres undefined) | > 100 | – | > 100 | > 100 | – | > 100 | – | > 100 | > 100 | – | – | – | – | – | – | – | – | – | – | –
4 | COc1ccc2c(c1)CC1c3c(ccc(OC)c3O)CC2N1C (centres undefined) | 47.3 | > 100 | > 100 | > 100 | 57.5 | > 81.3 | 80.6 | 37.1 | 45.4 | – | – | – | – | – | – | – | – | – | – | –
5 | COc1cc(-c2cc(/C=C/C(=O)c3ccc(Cl)c(Cl)c3)[nH]n2)cc(OC)c1OC | 21.5 | > 100 | > 100 | > 100 | > 100 | 34 | 23.5 | 34.1 | 79.6 | 2.95 | 18.7 | 18.8 | 20.5 | 11.5 | 6.3 | 2.15 | 13.9 | 8.63 | – | –
6 | C/C=C/[C@H]1O[C@@H]2C(=C[C@H]1O)C(=O)O[C@H]2C | 16.7 | 42.3 | 33.5 | 45.8 | 27.4 | > 56.8 | – | > 100 | 14.2 | 4.19 | 19 | 17.6 | 23.2 | 2.19 | 24.8 | – | 37.8 | 3.19 | 5.76 | 21.4
7 | C[C@]12CC[C@H]3[C@@H](C[C@@H]4SC(Nc5ccccc5)=N[C@@]45CC(O)CC[C@]35C)[C@@H]1CCC2O (some centres undefined) | 3.01 | 6.02 | 3.96 | 7.86 | – | 14.9 | 27.1 | 5.64 | 5.36 | 1.51 | 2.41 | 1.83 | 2.68 | – | 3.43 | 1.6 | 2.51 | 2.27 | 1.7 | 3.62
8 | OCCNCCCOc1ccc2ncnc(Nc3ccc(Oc4cccc(C(F)(F)F)c4)c(Cl)c3)c2c1 | – | – | 3.31 | 3.24 | – | 5.83 | 4.42 | 3.38 | 3.38 | – | – | 1.79 | 1.65 | – | 2.24 | 1.66 | 1.7 | 1.76 | 1.33 | 2.66
9 | COc1ccc2c(c1)[n+]([O-])c(-c1ccc(C)cc1)c(N)[n+]2[O-] | > 100 | > 100 | – | > 100 | > 100 | > 100 | – | > 100 | > 100 | – | – | – | – | – | – | – | – | – | – | –
10 | COc1ccc(-c2cc(-c3cc(Cl)cc(Br)c3O)[nH]c(=O)n2)cc1 | 24.5 | 33.7 | 29.4 | – | 39.4 | 37.2 | 70.7 | – | 46.9 | – | – | – | – | – | – | – | – | – | – | –
11 | Cc1cc(N2CCCC2)nc(NCc2cc(Nc3ccnc4cc(Cl)ccc34)ccc2F)n1 | 0.557 | 3.47 | – | – | 1.23 | 3.27 | – | 3.31 | – | 0.198 | 1.71 | – | – | 0.286 | 1.69 | – | 1.74 | – | 1.3 | 2.69
12 | CCOC(=O)C1=C(C)N(NC(N)=O)C(C)(O)C12CCOC2=O (centres undefined) | > 100 | > 100 | > 100 | > 100 | > 100 | > 100 | – | > 100 | > 100 | – | – | – | – | – | – | – | – | – | – | –
13 | O=[N+]([O-])c1ccc(/C=C/c2csnn2)cc1 | > 100 | > 100 | > 100 | > 100 | > 100 | > 100 | > 100 | > 100 | > 100 | – | – | – | – | – | – | – | – | – | – | –
14 | Cc1ccc(NC(=S)SCCC(=O)O)cc1 | > 100 | > 100 | – | > 100 | > 100 | > 100 | > 100 | > 100 | > 100 | – | – | – | – | – | – | – | – | – | – | –
15 | CCC(C)C1NC(=O)C2CCCN2C(=O)CNC(=O)C(C)NC(=O)C(Cc2ccccc2)NC(=O)C(C(C)C)NC1=O (centres undefined) (cyclo(GPIVFA); configuration not given here) | > 100 | > 100 | > 100 | > 100 | > 100 | > 100 | – | – | > 100 | – | – | – | – | – | – | – | – | – | – | –
16 | Clc1ccc2nc(-c3ccccc3)nc(Cl)c2c1 | > 100 | > 100 | > 100 | > 100 | > 100 | > 100 | > 100 | > 100 | > 100 | – | – | – | – | – | – | – | – | – | – | –
17 | CC1=C(Cl)C=CP(=O)(OC(C)C)C1 (centres undefined) | > 100 | > 100 | > 100 | > 100 | > 100 | > 100 | > 100 | > 100 | > 100 | – | – | – | – | – | – | – | – | – | – | –
18 | O=[N+]([O-])c1cc(Cl)ccc1OCc1ccccc1 | > 100 | > 100 | > 100 | – | 84.1 | > 100 | > 100 | > 100 | > 100 | – | – | – | – | – | – | – | – | – | – | –
19 | CCCCc1n(Cc2ccc3ccccc3c2)cc[n+]1Cc1ccc2ccccc2c1 | 2.08 | – | 2.08 | 2.63 | – | – | 4.03 | – | 2.77 | 0.663 | – | 0.705 | 1.28 | – | – | 1.52 | – | 1.2 | 1.41 | 2.83
20 | C/C(=N\NC(=S)N1CCCCCCCCCCCC1)c1ccccn1 | 1.66 | 1.35 | – | 2.2 | 1.04 | 1.9 | 1.76 | 1.27 | 0.692 | – | – | – | – | – | – | – | – | – | – | 1.94
21 | COC(=O)C1C=NNC1C(=O)OC (centres undefined) | > 100 | > 100 | > 100 | > 100 | > 100 | > 100 | > 100 | > 100 | > 100 | – | – | – | – | – | – | – | – | – | – | –
